Data: patent publication US7087223B2, “Preventives and/or remedies for hyperphosphatemia” (Hisamitsu Pharmaceutical Co., Inc., priority 2000, dated 2006)

Key:
male SD rats = test: Effects on amount of urinary phosphorus in normal rats; assay type: in vivo; details: 0.5 g in feed (20 g/rat/day) containing 0.58% phosphorus, 5 days, vs control, FIG. 2
Protocol: Effects on Amount of Blood and Urinary Phosphorus in Normal Rats
Using male SD rats (aged 8 weeks), the experiments on suppressive effects for the increase of urinary phosphorus amount in the weakly basic anion exchange resin (Ionac A-365; Sybron Chemicals Co.) or calcium carbonate were carried out as follows.
Namely, after the rats were given with feed (20 g/rat/day) containing 0.3% phosphorus for 7 days, feed (20 g/rat/day) containing 0.58% phosphorus was mixed with 0.5 g of Ionac A-365 or calcium carbonate and the mix feed was further administered to the rats for 5 days. Further, urine was collected for 24 hours before the drug administration and 5 days after the drug administration, and the amount of urinary phosphorus was calculated based on the urinary phosphorus concentration and the amount of urine. The urinary phosphorus concentration was measured by an inorganic phosphorus measurement reagent (P Test Wako). The increased amount of urinary phosphorus excretion was calculated based on the obtained difference of urinary phosphorus amount between before drug administration and 5 days after the drug administration, and compared with that of the non-administration group (control). As for rats in each group, 6 rats in each were subjected to the experiments.

rats with ⅚ nephrectomy = test: Effects on blood phosphorus concentration and renal function in rats with 5/6 nephrectomy; assay type: in vivo, rat; details: 0.3 g in 15 g of feed, 12 weeks after nephrectomy, vs control
Protocol: Effects on Blood Phosphorus Concentration and Renal Function in Rats With ⅚ Nephrectomy
Using male SD rats (aged 9 weeks), the experiments on the effects for the lowering action of urinary phosphorus amount and the renal function in the weakly basic anion exchange resin (Ionac A-365; Sybron Chemicals. Co.) or calcium carbonate were carried out as follows.
Namely, ⅔ of the left kidney was removed, after 1 week the right kidney being totally removed to make rats with ⅚ nephrectomy. After 1 week, a mixed feed administration of calcium carbonate or Ionac A-365 started. As a powder feed for rat MF manufactured by Oriental Yeast was used, and the administration dose was made 0.3 g content in 15 g of the feed. 12 weeks after the preparation of rats with ⅚ nephrectomy, blood was collected from the caudal vein, and the blood phosphorus concentration was measured by an inorganic phosphorus measurement reagent (P Test Wako). Also, urine was collected for 24 hours before the nephrectomy and 12 weeks after the nephrectomy, and the urinary protein concentration being measured by a protein measurement reagent (Protein Assay Kit, Bio-lad). As for rats in each group, 9 rats in each were subjected to the experiments.

## O=C([O-])[O-].[Ca+2] [calcium carbonate]
Male SD rats
  increase of urinary phosphorus excretion: significantly suppressed compared with that of control
Rats with ⅚ nephrectomy; FIG. 3
  blood phosphorus concentration: no significant difference in blood phosphorus concentration compared with control
Rats with ⅚ nephrectomy; FIG. 4
  increase of urinary protein excretion amount: significantly suppressed compared with control
